The values that follow come from PubChem BioAssay AID489035 (Sanford-Burnham Center for Chemical Genomics, 2010).

The source made the active and inactive calls. The rule behind the calls is not given here. Starred links: 1 amine or outer side, 2 acyl side, 3 side chain; linkers in the order of their positions; H or OH if unused. Non-standard residues stand in square brackets, D forms with d. Residues, ends and D or L forms follow the SMILES beside them. X2 = CCC[C@@H](N[*:1])[C@H](C)C(=O)O[C@H](C(=O)[*:2])[C@@H](C)CC; X1 = CC(N[*:1])C(=O)C(C)(C)C(=O)[*:2]; NMeY = CN[C@@H](Cc1ccc(O)cc1)C(=O)O; NMeL = CN[C@@H](CC(C)C)C(=O)O; NMeV = CN[C@H](C(=O)O)C(C)C; NMeA = CN[C@@H](C)C(=O)O Where only a bound is given, the exact number is not on record here.

For this test, the system named is Jurkat NF-kB reporter, TCR-induced, luciferase luminescence. Nature of the test: T-cell NF-kB luciferase reporter inhibition – Jurkat cells, luminescence, dose response (AID 489035). A general note: Reporter assays use an easily measured gene product as a stand-in for the process of interest.
Usually IC50 stands for the concentration that inhibits the measured activity by half. As for `CCC[C@H]1NC(=O)[C@H](C)N(C)C(=O)C(C)(C)C(=O)C(C)NC(=O)[C@H](Cc2ccc(OC)cc2)N(C)C(=O)[C@H](C(C)C)N(C)C(=O)CNC(=O)[C@H](CC(C)C)N(C)C(=O)CNC(=O)[C@H]([C@@H](C)CC)OC(=O)[C@H]1C` (stereo partly specified) (cyclo(G[NMeL]G[NMeV][NMeY](Me)[X1][NMeA][X2])), the IC50 is > 80 µM (inactive).
For the compound `C=C1C(O)[C@@H]2O[C@]3(CC[C@H](/C=C/C(C)[C@@H]4CC(C)=CC5(O[C@H](C[C@@](C)(O)CO)CCC5O)O4)O3)CC[C@H]2O[C@@H]1C(O)CC(C)[C@H]1OC2(CCCCO2)CCC1C` (stereo partly specified), the 50% inhibitory concentration (IC50) was 0.29 µM.
Turning to `COc1cc(CC(=O)OCC(=O)c2ccc3c(c2)OCCO3)cc(OC)c1OC`, the IC50 is > 80 µM (inactive).
For `O=S1(=O)C=C(Sc2nc3cc(Cl)ccc3o2)c2ccccc21`, the IC50 is less than 0.16 µM.
Turning to `COc1cc2nc(CN3CC=C(c4ccccc4)CC3)[nH]c(=O)c2cc1OC`, the IC50 is > 80 µM (inactive).
In the case of `COc1ccc(CCNc2cc(N3CCN(C(=O)c4ccccc4F)CC3)ccc2[N+](=O)[O-])cc1OC`, the IC50 was > 80 µM (inactive).
Turning to `Cc1ccc(N(C)S(=O)(=O)c2ccc(-c3cnc(C4CC4)o3)cc2)cc1`, the IC50 is 44.6 µM (inactive).
The same measure for `CCOC(=O)c1ccc2nc(Nc3nc4ccc(F)cc4s3)sc2c1`: 75.4 µM (inactive); for `COc1ccc(CCNc2nnc(Sc3nnnn3-c3ccccc3)s2)cc1OC`: 10.6 µM; for `CCOC(=O)c1ccccc1NS(=O)(=O)c1ccc(OCC)cc1`: 78.3 µM (inactive).
With `N/C(=N\OCc1ccc([N+](=O)[O-])cc1)c1ccccn1`, the IC50 was 0.67 µM.
Turning to `COc1cc(C(=O)Nc2ccc3c(c2)CCN3C(C)=O)cc(OC)c1OC`, the IC50 was > 80 µM (inactive).
Regarding `O=C(Nc1ccc(S(=O)(=O)N2CCCCC2)cc1)c1ccc(CN2CCOCC2)cc1`, the IC50 is 16.6 µM.
For `COc1cc(NS(=O)(=O)c2ccc(C)cc2)c2ncccc2c1` the value was 2.12 µM; for `COc1ccc([N+](=O)[O-])cc1Nc1c2ccccc2nc2ccccc12`, 50.7 µM (inactive); for `CCOC(=O)Nc1nc(-c2ccccc2)c(C(=O)c2ccccc2)s1`, > 80 µM (inactive).
For the compound `O=C(O)c1ccc(-c2ccc(-c3ccccc3)cc2)s1`, the IC50 was 1.39 µM.
On to `O=C(N/N=C/c1ccccc1Cl)c1[nH]c2ccc(Br)cc2c1-c1ccccc1`, for which the IC50 was 6.27 µM.
Take `COC(=O)c1ccccc1NC1=C/C(=N\S(=O)(=O)c2cccs2)c2ccccc2C1=O`: the IC50 was 2.91 µM.
Turning to `COc1ccc(C2=Nn3c(nnc3-c3ccccc3OC)SC2)cc1OC1CCCC1`, the IC50 is 15.3 µM.
For the compound `CC(C)Cn1c(N)c(C(=O)CSc2ccc3c(c2)OCCO3)c(=O)n(C)c1=O`, the IC50 was less than 0.16 µM.
For `O=C(Nc1nc(-c2ccccc2)cs1)c1ccc(N2CCOCC2)c([N+](=O)[O-])c1` the value was > 80 µM (inactive); for `CC(C)c1oc(=O)cc2c1[C@@H](O)[C@H]1OC(=O)[C@@]3(C)CC[C@@H](O)[C@@]2(C)C13` (stereo partly specified), 2.54 µM; for `Cc1noc(C)c1COc1ccc(C(=O)NNC(=O)c2ccccc2F)cc1`, > 80 µM (inactive).
In the case of `COc1cc(/C=C/C(=O)c2ccc([N+](=O)[O-])o2)ccc1O`, the IC50 was 1.86 µM.
For the compound `CC1CC(C)CN(S(=O)(=O)c2ccc(NC(=O)c3ccc(=O)[nH]c3)cc2)C1` (stereo unspecified), the IC50 is > 80 µM (inactive).
For `COc1ccc(NC(=O)C(=O)NCC2CCCN2S(=O)(=O)c2ccc(C)cc2)cc1` (stereo unspecified) the value was > 80 µM (inactive); for `COc1ccc(S(=O)(=O)N2N=C(C)Oc3ccccc3C2=O)cc1`, 33 µM (inactive).
The same measure for `Cc1noc(C)c1COc1cccc(C(=O)OCC(=O)N2CC(=O)Nc3ccccc32)c1`: > 80 µM (inactive); for `CCN1C/C(=C/c2ccc(OC)c(O)c2)C(=O)/C(=C/c2ccc(OC)c(O)c2)C1`: 22.5 µM (inactive); for `COc1ccc([C@H]2CC(=O)C=C(c3ccc(OC)cc3OC)C2)cc1`: > 80 µM (inactive).
For `CCCCOc1ccccc1C1CC(=O)NC2=C1C(=O)CCC2` (stereo unspecified) the value was > 80 µM (inactive); for `Cc1nc(Nc2nc3c(c(=O)[nH]2)CCC3)nc2ccccc12`, 3.66 µM.
Take `C[C@]12CCC3C(CCC4=CC(O)CC[C@@]43/C=N/O)C1(O)CCC2C1=CC(=O)OC1` (stereo partly specified): the IC50 is 47.8 µM (inactive).
In the case of `CCOc1ccc(N(C)S(=O)(=O)c2ccc(-c3cc(C)no3)s2)cc1`, the IC50 was > 80 µM (inactive).
Turning to `CCOc1ccccc1C1CC(=O)Nc2cc3c(cc21)OCCO3` (stereo unspecified), the IC50 is 3.96 µM.
On to `Clc1ccc2c(c1)C(C1=NCCN1)c1ccccc1CS2` (stereo unspecified), for which the IC50 was 58.5 µM (inactive).
For the compound `CC(=O)O[C@@]12CO[C@@H]1C[C@H](O)[C@@]1(C)C(=O)[C@H](O)C3=C(C)[C@@H](OC(=O)[C@H](O)[C@@H](NC(=O)c4ccccc4)c4ccccc4)C[C@@](O)([C@@H](OC(=O)c4ccccc4)C12)C3(C)C` (stereo partly specified), the IC50 was 39.4 µM (inactive).
The same measure for `CC[n+]1cc(C)ccc1/C=C/c1ccc(N(C)C)cc1`: > 80 µM (inactive); for `CCCCC(=O)NC(c1ccc(N(CC)CC)cc1)c1ccc2cccnc2c1O` (stereo unspecified): 8.89 µM.
On to `CCS(=O)(=O)c1ncc(Cl)c(C(=O)Nc2ccc(S(=O)(=O)N(C)c3ccccc3)cc2)n1`, for which the IC50 is 0.8 µM.
Consider `COc1cccc(N/C(N)=N/c2nc(CSc3ccccn3)cc(=O)[nH]2)c1`, for which the IC50 was 4.67 µM.
For the compound `CCN(CC)c1ccc(-c2nn3c(-c4ccccc4OC)nnc3s2)cc1`, the IC50 was 20.4 µM (inactive).
As for `COC(=O)C(Cc1ccc(N(CCCl)CCCl)cc1)N=Cc1ccccc1O` (stereo unspecified), the IC50 was 0.65 µM.
For `Nc1nc2n[nH]nc2c(=O)[nH]1` the value was > 80 µM (inactive); for `COc1ccc(N/N=C/c2c(C(=O)O)ccc3ccccc23)cc1`, 16.4 µM; for `COc1cc(C2C(C#N)=C(N)Oc3cc(N(C)C)ccc32)cc2c1OCO2` (stereo unspecified), > 80 µM (inactive).
As to `Cc1c(C(=O)N2CCOCC2)[nH]c2c1C(=O)CC(c1ccccc1Cl)C2` (stereo unspecified), the IC50 was > 80 µM (inactive).
With `COc1ccc(C2=NOC(C(=O)NCc3cccs3)C2)cc1OC` (stereo unspecified), the IC50 was > 80 µM (inactive).
For the compound `CCCCCCCOc1ccc(OC(=O)c2cccnc2)cc1`, the IC50 is > 80 µM (inactive).
`Cc1ccnc2c1ccc1c(C)ccnc12`: the IC50 is 2.42 µM.
`CCN(CC)c1ccc(/C=C/c2ccc3ccc(OC)cc3[n+]2CC)cc1`: the IC50 was 51.9 µM (inactive).
For `COC(=O)C1CN(C#N)N(c2ccc(Cl)cc2)C12c1ccccc1-c1ccccc12` (stereo unspecified) the value was 0.9 µM; for `COc1cccc(C2CC(=O)Nc3cc4c(cc32)CCC4)c1` (stereo unspecified), > 80 µM (inactive).
In the case of `Cc1ccccc1NC1=C/C(=N\S(=O)(=O)c2cccs2)c2ccccc2C1=O`, the IC50 was 1.25 µM.
For `COc1ccc(OC)c(-c2nnc3n2N=C(c2ccc(OC)c(OC4CCCC4)c2)CS3)c1`, the IC50 was 15.9 µM.
As for `CC1(C)CC(N2CCN(C(c3ccccc3)c3ccccc3)CC2)=CC(=[N+]2CCCCC2)C1`, the IC50 is 15.9 µM.
In the case of `COc1ccc(-n2nnnc2-c2ccccc2)cc1`, the IC50 was > 80 µM (inactive).
With `Cc1nc2ccccc2c2c1CC(C(C)(Cl)Br)O2` (stereo unspecified), the IC50 is > 80 µM (inactive).
Take `COc1cc([C@@H]2c3cc4c(cc3[C@@H](OC)[C@H]3COC(=O)[C@H]23)OCO4)cc(OC)c1O`: the IC50 is > 80 µM (inactive).
Turning to `COc1cc(-c2noc(C)c2-c2ccc3[nH]ccc3c2)cc(OC)c1OC`, the IC50 is 25.3 µM (inactive).
For the compound `CC(C)Nc1ccc(C(CC(N)=O)NC(=O)c2ccc(Br)cc2)cc1[N+](=O)[O-]` (stereo unspecified), the IC50 was 4.05 µM.
Take `COc1cc(C(=O)N2CCN(c3cccc(C)c3C)CC2)cc(OC)c1OC`: the IC50 is > 80 µM (inactive).
Consider `O=S(=O)(Nc1ccc(F)cc1Cl)c1ccc(-c2cnc(C3CC3)o2)cc1`, for which the IC50 was > 80 µM (inactive).
With `COc1ccccc1N1CCN(C(=O)c2ccc(-c3ccc(Cl)cc3)o2)CC1`, the IC50 is 34.6 µM (inactive).
Consider `O=C(c1ccc(CS(=O)c2ccccc2Cl)o1)N1CCN(c2ccccn2)CC1` (stereo unspecified), for which the IC50 is 68.2 µM (inactive).
As to `CC(C)(C)c1nnc(N/N=C/c2ccccc2O)n(N)c1=O`, the IC50 is 12.2 µM.
For `CCN(c1ccccc1)S(=O)(=O)c1ccc(C(=O)NC2CCN(Cc3ccccc3)CC2)cc1` the value was 33 µM (inactive); for `CCOc1ccc(N/C(N)=N/c2nc(CSc3nnc(C)s3)cc(=O)[nH]2)cc1`, > 80 µM (inactive).
In the case of `O=C1/C(=C/c2ccc(N3CCOCC3)o2)SC(=Nc2ccccc2)N1CCc1c[nH]c2ccccc12`, the IC50 was 18.3 µM.
In the case of `COC(=O)[C@]12OC[C@]34C([C@@H](O)[C@@H]1O)[C@]1(C)CC(=O)C(O)=C(C)[C@@H]1C[C@H]3OC(=O)[C@H](O)[C@@H]24` (stereo partly specified), the IC50 is less than 0.16 µM.
Turning to `COc1ccc(NC(=O)C(=O)NCC2CCCN2S(=O)(=O)c2cccs2)cc1` (stereo unspecified), the IC50 is 7.15 µM.
For the compound `Cc1ccc(S(=O)(=O)Nc2ccccc2-c2ccccc2)cc1`, the IC50 was 22.6 µM (inactive).
In the case of `COc1ccc(/C=C/C(=O)c2cc(F)ccc2OC(=O)c2ccccc2)cc1OC`, the 50% inhibitory concentration (IC50) is 2.49 µM.
Consider `O=C(c1cc(-c2ccncc2)nc2c(Cl)cccc12)N1CCN(c2ccccc2F)CC1`, for which the IC50 was > 80 µM (inactive).
Consider `Cc1ccc(O)c(NC(=O)c2cc(-c3ccccc3)on2)c1`, for which the IC50 was > 80 µM (inactive).
`COc1ccccc1CNS(=O)(=O)c1ccc(-c2cc(C)no2)cc1`: the IC50 is > 80 µM (inactive).
As to `CC(=O)O[C@H]1C(=O)[C@@]2(C)C([C@H](OC(=O)c3ccccc3)[C@]3(O)C[C@H](OC(=O)[C@H](O)[C@@H](NC(=O)Cc4ccccc4)c4ccccc4)C(C)=C1C3(C)C)[C@]1(OC(C)=O)CO[C@@H]1C[C@@H]2O` (stereo partly specified), the IC50 is > 80 µM (inactive).
Turning to `COc1cccc(-c2cc(=O)c3cc(NC(=O)c4ccccc4)ccc3[nH]2)c1`, the IC50 was > 80 µM (inactive).
The same measure for `CCOC(=O)C(C)Oc1cccc2c(=O)n(CC(=O)NCc3ccc(F)cc3)ccc12` (stereo unspecified): > 80 µM (inactive); for `O=C(Nc1ccc(CSc2ccccc2)cc1)c1ccc(CN2CCOCC2)cc1`: > 80 µM (inactive).
